Measured values: the NIST ThermoML archive (doi:10.1021/je2003012)

Test: relative permittivity at various frequencies (dimensionless); wn = mass fraction of the nth substance listed
Conditions: Liquid, direct capacitance:P =

O=C=O [carbon dioxide] + CCO
Conditions | relative permittivity
303.4 K, 10000 kPa, w2 = 0.05 | 1.83
303.4 K, 11400 kPa, w2 = 0.05 | 1.86
303.4 K, 13200 kPa, w2 = 0.05 | 1.89
303.4 K, 13600 kPa, w2 = 0.05 | 1.9
303.4 K, 14800 kPa, w2 = 0.05 | 1.91
303.4 K, 15300 kPa, w2 = 0.05 | 1.92
303.4 K, 15800 kPa, w2 = 0.05 | 1.92
303.4 K, 16000 kPa, w2 = 0.05 | 1.93
303.4 K, 17500 kPa, w2 = 0.05 | 1.94
303.4 K, 19000 kPa, w2 = 0.05 | 1.95
303.4 K, 19200 kPa, w2 = 0.05 | 1.95
303.4 K, 21000 kPa, w2 = 0.05 | 1.97
303.4 K, 21300 kPa, w2 = 0.05 | 1.97
303.4 K, 23000 kPa, w2 = 0.05 | 1.98
303.4 K, 23300 kPa, w2 = 0.05 | 1.99
303.4 K, 25100 kPa, w2 = 0.05 | 2
303.4 K, 25400 kPa, w2 = 0.05 | 2
303.4 K, 26700 kPa, w2 = 0.05 | 2.01
303.4 K, 27200 kPa, w2 = 0.05 | 2.01
303.4 K, 28900 kPa, w2 = 0.05 | 2.02
303.4 K, 29600 kPa, w2 = 0.05 | 2.03
303.7 K, 7200 kPa, w2 = 0.212 | 3.15
303.7 K, 7900 kPa, w2 = 0.212 | 3.18
303.7 K, 8800 kPa, w2 = 0.212 | 3.22
303.7 K, 9800 kPa, w2 = 0.1 | 2.24
303.7 K, 9800 kPa, w2 = 0.212 | 3.25
303.7 K, 11000 kPa, w2 = 0.212 | 3.29
303.7 K, 11300 kPa, w2 = 0.1 | 2.27
303.7 K, 11400 kPa, w2 = 0.1 | 2.28
303.7 K, 13000 kPa, w2 = 0.212 | 3.35
303.7 K, 13100 kPa, w2 = 0.1 | 2.3
303.7 K, 14000 kPa, w2 = 0.1 | 2.32
303.7 K, 14900 kPa, w2 = 0.1 | 2.34
303.7 K, 14900 kPa, w2 = 0.212 | 3.4
303.7 K, 15000 kPa, w2 = 0.212 | 3.4
303.7 K, 16000 kPa, w2 = 0.1 | 2.36
303.7 K, 16500 kPa, w2 = 0.212 | 3.44
303.7 K, 16700 kPa, w2 = 0.212 | 3.45
303.7 K, 16900 kPa, w2 = 0.1 | 2.37
303.7 K, 17300 kPa, w2 = 0.212 | 3.46
303.7 K, 17800 kPa, w2 = 0.1 | 2.38
303.7 K, 18000 kPa, w2 = 0.212 | 3.47
303.7 K, 18800 kPa, w2 = 0.212 | 3.49
303.7 K, 19100 kPa, w2 = 0.1 | 2.4
303.7 K, 19900 kPa, w2 = 0.1 | 2.41
303.7 K, 20200 kPa, w2 = 0.212 | 3.52
303.7 K, 20400 kPa, w2 = 0.1 | 2.42
303.7 K, 21400 kPa, w2 = 0.1 | 2.43
303.7 K, 21600 kPa, w2 = 0.212 | 3.54
303.7 K, 21800 kPa, w2 = 0.212 | 3.55
303.7 K, 21900 kPa, w2 = 0.1 | 2.43
303.7 K, 23100 kPa, w2 = 0.1 | 2.45
303.7 K, 23300 kPa, w2 = 0.212 | 3.57
303.7 K, 23900 kPa, w2 = 0.212 | 3.58
303.7 K, 24100 kPa, w2 = 0.1 | 2.46
303.7 K, 24200 kPa, w2 = 0.1 | 2.46
303.7 K, 25300 kPa, w2 = 0.1 | 2.47
303.7 K, 25400 kPa, w2 = 0.212 | 3.61
303.7 K, 25500 kPa, w2 = 0.1 | 2.48
303.7 K, 26200 kPa, w2 = 0.212 | 3.62
303.7 K, 26500 kPa, w2 = 0.1 | 2.48
303.7 K, 27200 kPa, w2 = 0.212 | 3.64
303.7 K, 27400 kPa, w2 = 0.1 | 2.49
303.7 K, 28000 kPa, w2 = 0.1 | 2.5
303.7 K, 28400 kPa, w2 = 0.1 | 2.5
303.7 K, 28400 kPa, w2 = 0.212 | 3.66
303.7 K, 29400 kPa, w2 = 0.1 | 2.51
303.7 K, 30200 kPa, w2 = 0.212 | 3.68
304.9 K, 16100 kPa, w2 = 0.152 | 2.67
304.9 K, 16800 kPa, w2 = 0.152 | 2.68
304.9 K, 17300 kPa, w2 = 0.152 | 2.68
304.9 K, 17800 kPa, w2 = 0.152 | 2.69
304.9 K, 18800 kPa, w2 = 0.152 | 2.7
304.9 K, 19400 kPa, w2 = 0.152 | 2.72
304.9 K, 20100 kPa, w2 = 0.152 | 2.73
304.9 K, 20800 kPa, w2 = 0.152 | 2.74
304.9 K, 21900 kPa, w2 = 0.152 | 2.75
304.9 K, 22800 kPa, w2 = 0.152 | 2.76
304.9 K, 23700 kPa, w2 = 0.152 | 2.77
304.9 K, 24300 kPa, w2 = 0.152 | 2.79
304.9 K, 24700 kPa, w2 = 0.152 | 2.78
304.9 K, 25500 kPa, w2 = 0.152 | 2.79
304.9 K, 26400 kPa, w2 = 0.152 | 2.81
304.9 K, 26500 kPa, w2 = 0.152 | 2.81
304.9 K, 27200 kPa, w2 = 0.152 | 2.82
304.9 K, 28200 kPa, w2 = 0.152 | 2.83
304.9 K, 29100 kPa, w2 = 0.152 | 2.84
